According to patent US4100346A, “Certain 7(o-amino-methyl- or methylaminomethylphenyl- or cyclohexadienyl- or thienylacetamide)-3[1-carboxymethyl-(or ethyl- or propyl-)-tetrazol-5-ylthiomethyl]-3-cephem-4-carboxylic acids” (Bristol-Myers Company, priority 1976, dated 1978):
Converted amounts (≈) assume the structure as drawn. Structures can show the parent of a compound that is named as a salt. Blank lines part the entries; values can stand above or below the molecule they belong to.

Experiments:
[1] = Solubility in water, buffer or urine
physchem = conditions: solid
S. pyogenes = assay: MIC by Tube Dilution Technique in Nutrient Broth (Example 9 table); assay type: cell-based; conditions: Streptococcus pyogenes; Sp-3 S. pyogenes A9604
Source text: (§1) MIC (mcg./ml.) by Tube Dilution Technique in Nutrient Broth.

E. coli [2] = assay: as above; assay type: cell-based; conditions: Escherichia coli
Source text: as §1

P. mirabilis = assay: as above; assay type: cell-based; conditions: Proteus mirabilis; Pm-2 P. mirabilis A9900
Source text: as §1

S. aureus [3] = assay: as above; assay type: cell-based; conditions: Staphylococcus aureus
Source text: as §1

D. pneumoniae = assay: as above; assay type: cell-based; conditions: Streptococcus pneumoniae; Dp-4 D. pneumoniae A9585
Source text: as §1

P. aeruginosa = assay: as above; assay type: cell-based; conditions: Pseudomonas aeruginosa; P. aeruginosa A9843
Source text: as §1

E. cloacae = assay: as above; assay type: cell-based; conditions: Enterobacter cloacae; El-1 E. cloacae A9656
Source text: as §1

K. pneumoniae [4] = assay: as above; assay type: cell-based; conditions: Klebsiella pneumoniae
Source text: as §1

S. enteritidis = assay: as above; assay type: cell-based; conditions: Salmonella enterica; Se-1 S. enteritidis A9531
Source text: as §1

S. marcescens = assay: as above; assay type: cell-based; conditions: Serratia marcescens; Sm-1 S. marcescens A20019
Source text: as §1

P. morganii = assay: as above; assay type: cell-based; conditions: Morganella morganii; Pg-8 P. morganii A15153
Source text: as §1

Ser. marcescens = assay: M.I.C. by Tube Dilution in Nutrient Broth (Examples 1 and 2); assay type: cell-based; conditions: Serratia marcescens; Ser. marcescens A20019 (10^-4)
Source text: (§2) | **Dilution of overnight broth culture

Sal. enteritidis = assay: as above; assay type: cell-based; conditions: Salmonella enterica; Sal. enteritidis A9531 (10 ^4)
Source text: as §2

E. coli [5] = assay: as above; assay type: cell-based; conditions: Escherichia coli
Source text: as §2

S. aureus [6] = assay: as above; assay type: cell-based; conditions: Staphylococcus aureus
Source text: as §2

Ps. aeruginosa = assay: as above; assay type: cell-based; conditions: Pseudomonas aeruginosa; read-out: M.I.C.
Source text: as §2

K. pneumoniae [7] = assay: as above; assay type: cell-based; conditions: Klebsiella pneumoniae
Source text: as §2

Ent. cloacae = assay: as above; assay type: cell-based; conditions: Enterobacter cloacae
Source text: as §2

Pr. morganii = assay: as above; assay type: cell-based; conditions: Morganella morganii; Pr. morganii A15153 (10^-4)
Source text: as §2

Pr. mirabilis = assay: as above; assay type: cell-based; conditions: Proteus mirabilis; Pr. mirabilis A9900 (10^-4)
Source text: as §2

Str. pyogenes = assay: as above; assay type: cell-based; conditions: Streptococcus pyogenes; Str. pyogenes A9604 (10^-3); 45% Antibiotic Assay Broth + 50% Nutrient Broth + 5% serum
Source text: (§3) *45% Antibiotic Assay Broth + 50% Nutrient Broth + 5% serum
(§4) **Dilution of overnight broth culture

Str. pneumoniae = assay: as above; assay type: cell-based; conditions: Streptococcus pneumoniae; Str. pneumoniae A9585 (10^-3 dilution of overnight broth culture); 45% Antibiotic Assay Broth + 50% Nutrient Broth + 5% serum
Source text: as §3, §4

[8] = Solid stability at elevated temperatures
[9] = Stability of aqueous solutions at room temperature (loss of activity)
[10] = Blood level in mice after intramuscular injection (Example 7); assay type: in vivo; conditions: mouse, im, intramuscularly, 10 mg./kg. of body weight, at 15 minutes
Description: The IR and NMR were consistent with the title product, but indicated about 20% impurities, primarily starting material. When this compound was administered intramuscularly by injection at a dose of 10 mg./kg. of body weight in mice, a blood level of […]. was obtained at 15 minutes.

lowest pH able to dissolve 150 mg./ml. ([1]; room temperature): 10.3
solubility ([1]; solubility, in both buffered aqueous media and in dog urine at room temperature): 1 to 3 mg/mL (≈ 2100 to 6310 µM)
Compound: Cn1nnnc1SCC1=C(C(=O)O)N2C(=O)[C@@H](NC(=O)Cc3ccccc3CN)[C@H]2SC1 [7-(o-aminomethylphenylacetamido)-3-(1-methyl-1,2,3,4-tetrazol-5-ylthiomethyl)-3-cephem-4-carboxylic acid]

Compound: NCc1ccccc1CC(=O)N[C@@H]1C(=O)N2C(C(=O)O)=C(CSc3nnnn3CC(=O)O)CS[C@H]12 [BL-S786: L-Lysine Salt]
degraded at 730 h (physchem): < 10%

Compound: Cn1nnnc1SCC1=C(C(=O)O)N2C(=O)[C@@H](NC(=O)[C@H](O)c3ccccc3)[C@H]2SC1 [Cefamandole]
MIC (S. pyogenes): 0.08 mg/L (≈ 0.173 µM)
MIC (E. coli [2]; Ec-1 E. coli NIHJ): 1.6 mg/L (≈ 3.46 µM)
MIC (E. coli [2]; Ec-3 E. coli Juhl A15119): 0.8 mg/L (≈ 1.73 µM)
MIC (E. coli [2]; Ec-58 E. coli A9675): 3.1 mg/L (≈ 6.7 µM)
MIC (P. mirabilis): 0.8 mg/L (≈ 1.73 µM)
MIC (S. aureus [3]; Sa-2 S. aureus +50% serum): 1.6 mg/L (≈ 3.46 µM)
MIC (S. aureus [3]; Sa-2 S. aureus Smith A9537): 0.8 mg/L (≈ 1.73 µM)
MIC (S. aureus [3]; Sa-11 S. aureus BX-1633 A9606): 1.6 mg/L (≈ 3.46 µM)
MIC (S. aureus [3]; Sa-44 S. aureus A15097): 3.1 mg/L (≈ 6.7 µM)
MIC (D. pneumoniae): 0.08 mg/L (≈ 0.173 µM)
MIC (P. aeruginosa): > 100 mg/L
MIC (E. cloacae): 50 mg/L (≈ 108 µM)
MIC (K. pneumoniae [4]; Kp-3 K. pneumoniae A9977): 0.8 mg/L (≈ 1.73 µM)
MIC (K. pneumoniae [4]; Kp-4 K. pneumoniae A15130): 6.3 mg/L (≈ 13.6 µM)
MIC (S. enteritidis): 0.4 mg/L (≈ 0.865 µM)
MIC (S. marcescens): > 100 mg/L
MIC (P. morganii): 3.1 mg/L (≈ 6.7 µM)

Compound: NCC1=C(CC(=O)N[C@@H]2C(=O)N3C(C(=O)O)=C(CSc4nnnn4CC(=O)O)CS[C@H]23)CC=CC1 [Example 2, 7-(2-Aminomethyl-1,4-cyclohexadienylacetamido)-3-(1-carboxymethyltetrazol-5-ylthiomethyl)-3-cephem-4-carboxylic acid]
MIC (Ser. marcescens): > 125 mg/L
MIC (Sal. enteritidis): 0.16 mg/L (≈ 0.307 µM)
MIC (E. coli [5]; E. coli A9675 (10^-4)): 16 mg/L (≈ 30.7 µM)
MIC (E. coli [5]; E. coli Juhl A15119 (10^-4)): 1.3 mg/L (≈ 2.49 µM)
MIC (S. aureus [6]; S. aureus BX1633 A9606 (10^-2)): 2.5 mg/L (≈ 4.79 µM)
MIC (S. aureus [6]; S. aureus BX1633 A9606 (10^-3)): 1.3 mg/L (≈ 2.49 µM)
MIC (S. aureus [6]; S. aureus Meth-Res A15097 (10^-3)): 4 mg/L (≈ 7.67 µM)
MIC (S. aureus [6]; S. aureus Smith A9537 (10^-4)): 0.5 mg/L (≈ 0.959 µM)
MIC (S. aureus [6]; S. aureus-50% serum A9537 (10^-4)): > 0.5 mg/L
MIC (Ps. aeruginosa): > 125 mg/L
MIC (K. pneumoniae [7]; K. pneumoniae A9977 (10^-4)): 0.3 mg/L (≈ 0.575 µM)
MIC (K. pneumoniae [7]; K. pneumoniae A15130 (10^-4)): 2 mg/L (≈ 3.83 µM)
MIC (Ent. cloacae; Ent. cloacae A9657 (10^-4)): 0.3 mg/L (≈ 0.575 µM)
MIC (Ent. cloacae; Ent. cloacae A9659 (10^-4)): 32 mg/L (≈ 61.4 µM)
MIC (Ent. cloacae; Ent. cloacae A9656 (10^-4)): > 125 mg/L
MIC (Pr. morganii): 8 mg/L (≈ 15.3 µM)
MIC (Pr. mirabilis): 0.3 mg/L (≈ 0.575 µM)
MIC (Str. pyogenes): 0.13 mg/L
MIC (Str. pneumoniae): 0.06 mg/L

Compound: NCc1ccccc1CC(=O)N[C@@H]1C(=O)N2C(C(=O)O)=C(CSc3nnnn3CC(=O)O)CS[C@H]12 [Example 3]
solubility ([1]; water, Solubility in water): > 500 mg/mL
relative stability of the solid at elevated temperatures [8]: not as stable at elevated temperatures
loss of activity in solution ([9]; 125.0 mg./ml. at pH 7.0, room temperature, at least 24 hours): no significant loss
Stability in water (time stable) ([9]; room temperature at 250 mg./ml.): at least 24 hours

concentration at 0.25 h [10]: 22300 µg/mL
Compound: NCc1ccccc1CC(=O)N[C@@H]1C(=O)N2C(C(=O)O)=C(CSc3nnnn3CCC(=O)O)CS[C@H]12 [Example 7, 7-(2-aminomethylphenylacetamido)-3-(1-carboxyethyltetrazol-5-ylthiomethyl)-3-cephem-4-carboxylic acid]

Compound: NCc1ccccc1CC(=O)N[C@@H]1C(=O)N2C(C(=O)O)=C(CSc3nnnn3CC(=O)O)CS[C@H]12 [Example 8, Monosodium BL-S786 Dihydrate]
Solubility in water ([1]; water, Dihydrate): > 400 mg/mL
Stability of 250,000 unit/ml. solution ([9]; 24 hours at room temperature): No loss

Compound: CNCc1ccsc1CC(=O)N[C@@H]1C(=O)N2C(C(=O)O)=C(CSc3nnnn3CC(=O)O)CS[C@H]12 [Example 9, 7-(3-N-methylaminomethyl-2-thienylacetamido)-3-(1-carboxymethyltetrazol-5-ylthiomethyl)-3-cephem-4-carboxylic Acid]
MIC (S. pyogenes): 0.08 mg/L (≈ 0.148 µM)
MIC (E. coli [2]; Ec-1 E. coli NIHJ): 0.8 mg/L (≈ 1.48 µM)
MIC (E. coli [2]; Ec-3 E. coli Juhl A15119): 0.8 mg/L (≈ 1.48 µM)
MIC (E. coli [2]; Ec-58 E. coli A9675): 12.5 mg/L (≈ 23.2 µM)
MIC (P. mirabilis): 0.4 mg/L (≈ 0.741 µM)
MIC (S. aureus [3]; Sa-2 S. aureus +50% serum): 3.1 mg/L (≈ 5.74 µM)
MIC (S. aureus [3]; Sa-2 S. aureus Smith A9537): 3.1 mg/L (≈ 5.74 µM)
MIC (S. aureus [3]; Sa-11 S. aureus BX-1633 A9606): 6.3 mg/L (≈ 11.7 µM)
MIC (S. aureus [3]; Sa-44 S. aureus A15097): 12.5 mg/L (≈ 23.2 µM)
MIC (D. pneumoniae): 0.08 mg/L (≈ 0.148 µM)
MIC (P. aeruginosa): > 100 mg/L
MIC (E. cloacae): 50 mg/L (≈ 92.7 µM)
MIC (K. pneumoniae [4]; Kp-3 K. pneumoniae A9977): 0.2 mg/L (≈ 0.371 µM)
MIC (K. pneumoniae [4]; Kp-4 K. pneumoniae A15130): 1.6 mg/L (≈ 2.97 µM)
MIC (S. enteritidis): 0.2 mg/L (≈ 0.371 µM)
MIC (S. marcescens): > 100 mg/L
MIC (P. morganii): 12.5 mg/L (≈ 23.2 µM)
